The record followed here is ChEMBL document CHEMBL2057124, “Benzoheterocyclic amodiaquine analogues with potent antiplasmodial activity: synthesis and pharmacological evaluation” (Bioorg Med Chem Lett, 2012).

Data set [1] has as its system Plasmodium falciparum. Put plainly: Antiplasmodial activity against chloroquine-resistant Plasmodium falciparum W2 infected in human erythrocytes after 48 hrs by Geimsa staining. The data set is classed as functional, organism-based. The settings on record: W2, 48 h.
Data set [2] relates to Plasmodium falciparum. Briefly: Antiplasmodial activity against chloroquine-resistant Plasmodium falciparum K1 assessed as [3H]hypoxanthine incorporation after 24 hrs by scintillation counting. The data set is classed as functional, organism-based.
The next data set relates to L6. Briefly: Cytotoxicity against rat L6 cells after 72 hrs by alamar blue assay. Format: cell-based. The note with it: L6, 72 h. For orientation: Resazurin is reduced to fluorescent resorufin, in cell work by metabolically active cells.
The nature of data set [3]: Selectivity ratio of IC50 for rat L6 cells to IC50 for […]. The data set is classed as ADME, cell-based. The settings on record: read-out: Ratio IC50.
Data set [4] concerns Plasmodium falciparum. Briefly: Resistance ratio of IC50 for chloroquine-resistance Plasmodium falciparum K1 to IC50 for […]. Format: functional.

SMILES strings stand for the structures.

For the compound `CCN(CC)Cc1cc(Nc2ccnc3cc(Cl)ccc23)ccc1O`, the IC50 in the data set with Plasmodium falciparum [1] was 5 nM; in the data set on Plasmodium falciparum [2], 8 nM.
With `CC(C)(C)Nc1nc2cc(Nc3ccnc4cc(Cl)ccc34)ccc2s1`, the IC50 with Plasmodium falciparum [1] was 1160 nM; with L6 it was 4130 nM; with Plasmodium falciparum [2], 917 nM. Further, in data set [3], the selectivity ratio worked out at 3.56.
On to `Clc1ccc2c(Nc3ccc4sc(NCCN5CCCC5)nc4c3)ccnc2c1`, for which, in the data set on Plasmodium falciparum [4], the “Ratio IC50” value came to 1.2. Moreover, the IC50 turned out to be 12 nM in the data set on Plasmodium falciparum [1], 5120 nM with L6 and 14 nM with Plasmodium falciparum [2]. Moreover, the selectivity ratio in data set [3] was found to be 426.
Turning to `Clc1ccc2c(Nc3ccc4sc(NCCN5CCCCC5)nc4c3)ccnc2c1`, the IC50 with Plasmodium falciparum [1] is 13 nM; in the data set with L6, 3540 nM; in the data set on Plasmodium falciparum [2], 7 nM. For the same compound, in data set [3], the selectivity ratio came out at 272.
On to `Clc1ccc2c(Nc3ccc4sc(NCCN5CCOCC5)nc4c3)ccnc2c1`, for which the IC50 with Plasmodium falciparum [1] came to 40 nM; with L6, 4670 nM; with Plasmodium falciparum [2], 25 nM. In addition, the selectivity ratio in data set [3] is 117.
As for `CCN(CC)CCNc1nc2cc(Nc3ccnc4cc(Cl)ccc34)ccc2s1`, half-maximal inhibition in the data set with Plasmodium falciparum [1] (IC50) required 11 nM.
Consider `CCNc1nc2cc(Nc3ccnc4cc(Cl)ccc34)ccc2o1`, for which the values for the IC50 with Plasmodium falciparum [1], with L6 and in the data set with Plasmodium falciparum [2] were 491 nM, 16400 nM and 921 nM, respectively. In addition, the selectivity ratio in data set [3] is 33.3.
Consider `Clc1ccc2c(Nc3ccc4oc(NCCN5CCCC5)nc4c3)ccnc2c1`, for which the “Ratio IC50” value in the data set on Plasmodium falciparum [4] turned out to be 2.8. Moreover, the IC50 came to 8 nM in the data set on Plasmodium falciparum [1], 8700 nM in the data set with L6 and 22 nM with Plasmodium falciparum [2]. In data set [3], the selectivity ratio was 1090.
Consider `CCNc1nc2cc(Nc3ccnc4cc(Cl)ccc34)ccc2[nH]1`, for which the IC50 in the data set on Plasmodium falciparum [1] stood at 501 nM; with L6 it was 5710 nM; in the data set with Plasmodium falciparum [2], 249 nM. The selectivity ratio in data set [3] is 11.4.
The matching figures for `Clc1ccc2c(Nc3ccc4[nH]c(NCCN5CCCCC5)nc4c3)ccnc2c1`: 4580 nM, 5250 nM, 90 nM and 1.15.
The matching figures for `CCN(CC)CCNc1nc2cc(Nc3ccnc4cc(Cl)ccc34)ccc2[nH]1`: 200 nM, 15300 nM, 827 nM and 76.4.
With `Clc1ccc2c(Nc3ccc(NCCN4CCCC4)nc3)ccnc2c1`, in the data set on Plasmodium falciparum [4], the “Ratio IC50” value is reported as 4.4. In addition, the values for the IC50 in the data set on Plasmodium falciparum [1], in the data set on L6 and in the data set on Plasmodium falciparum [2] were 21 nM, 18600 nM and 92 nM, respectively. Further, the selectivity ratio in data set [3] came out at 885.
In the case of `Clc1ccc2c(Nc3ccc(NCCN4CCOCC4)nc3)ccnc2c1`, the IC50 with Plasmodium falciparum [1] is 41 nM; in the data set on L6 it was 47400 nM; in the data set with Plasmodium falciparum [2], 73 nM. In addition, in data set [3], the selectivity ratio came out at 1160.

The term IC50 denotes the midpoint of a concentration-inhibition curve.
